The record followed here is US9079821B2, “Quinone based nitric oxide donating compounds” (NICOX S.A., priority 2011, dated 2015).

Where two headings read alike, the source gives them in different places.

As usually defined, the Cmax is the highest concentration seen after dosing.

The series is described as follows: Pharmacokinetic profile in rats (blood 15N-nitrite levels). It counts as in vivo, rat. Here is the method: The absorption and in vivo NO-donating property of the compounds of the invention were assessed by the evaluation of blood ^15N-nitrite levels following oral administration.
Tested Compounds: • 5-(2,4,5-trimethyl-3,6-dioxocyclohexa-1,4-dienylpentyl nitrate-nitrogen-15 which corresponds to compound (1) containing nitrogen-15 (^15N-Compound (1)); • 5-(4,5-dimethoxy-2-methyl-3,6-dioxocyclohexa-1,4-dienyl)pentyl nitrate-nitrogen-15 which corresponds to compound (2) containing nitrogen-15 (^15N-Compound (2)); • 4-(2,4,5-trimethyl-3,6-dioxocyclohexa-1,4-dienyl)butyl nitrate-nitrogen-15 which corresponds to compound (3) containing nitrogen-15 (^15N-Compound (3)); • 4-(4,5-dimethoxy-2-methyl-3,6-dioxocyclohexa-1,4-dienyl)butyl nitrate-nitrogen-15 which corresponds to compound (4) containing nitrogen-15 (^15N-Compound (4)); • 10-(2,4,5-trimethyl-3,6-dioxocyclohexa-1,4-dienyl)decyl nitrate-nitrogen-15 which corresponds to compound (5) containing nitrogen-15 (^15N-Compound (5)); • 10-(4,5-dimethoxy-2-methyl-3,6-dioxocyclohexa-1,4-dienyl)decyl nitrate-nitrogen-15 which corresponds to compound (6) containing nitrogen-15 (^15N-Compound (6)); • 3-(3-(4,5-dimethoxy-2-methyl-3,6-dioxocyclohexa-1,4-dienyl)propoxy)propyl nitrate-nitrogen-15 which corresponds to compound (14) containing nitrogen-15 (^15N-Compound (14)); • 6-(2,4,5-trimethyl-3,6-dioxocyclohexa-1,4-dienyl)hexyl nitrate-nitrogen-15 which corresponds to compound (15) containing nitrogen-15 (^15N-Compound (15)); • 6-(4,5-dimethoxy-2-methyl-3,6-dioxocyclohexa-1,4-dienyl)hexyl nitrate-nitrogen-15 which corresponds to compound (16) containing nitrogen-15 (^15N-Compound (16)); • 11-(4,5-dimethoxy-2-methyl-3,6-dioxocyclohexa-1,4-dienyl)-undecane-1,2-diyl dinitrate-nitrogen-15 which corresponds to compound (17) containing nitrogen-15 (^15N-Compound (17)); • 8-(5-methoxy-2,4-dimethyl-3,6-dioxocyclohexa-1,4-dienyl)octyl nitrate-nitrogen—which corresponds to compound (19) containing nitrogen-15 (^15N-Compound (19)); • 2-(3-(4,5-dimethoxy-2-methyl-3,6-dioxocyclohexa-1,4-dienyl)propoxy)ethyl nitrate-nitrogen-15 which corresponds to compound (20) containing nitrogen-15 (^15N-Compound (20)); • 6-(3-methyl-1,4-dioxo-1,4-dihydronaphthalen-2-yl)hexyl nitrate-nitrogen-15 which corresponds to compound (23) containing nitrogen-15 (^15N-Compound (23)); • 3-(3-(3-methyl-1,4-dioxo-1,4-dihydronaphthalen-2-yl)propoxy)propyl nitrate-nitrogen-15 which corresponds to compound (25) containing nitrogen-15 (^15N-Compound (25)); • 6-(5-methoxy-2,4-dimethyl-3,6-dioxocyclohexa-1,4-dienyl)hexyl nitrate-nitrogen-15 which corresponds to compound (28) containing nitrogen-15 (^15N-Compound (28)); • 6-(4-methoxy-2,5-dimethyl-3,6-dioxocyclohexa-1,4-dienyl)hexyl nitrate-nitrogen-15 which corresponds to compound (29) containing nitrogen-15 (^15N-Compound (29)); • 8-(4-methoxy-2,5-dimethyl-3,6-dioxocyclohexa-1,4-dienyl)octyl nitrate-nitrogen-15 which corresponds to compound (32) containing nitrogen-15 (^15N-Compound (32)); • 8-(2,4,5-trimethyl-3,6-dioxocyclohexa-1,4-dienyl)octyl nitrate-nitrogen-15 which corresponds to compound (34) containing nitrogen-15 (^15N-Compound (34)); • 5-isorbide mononitrate containing nitrogen-15 (5-ISM^15N).
Cannulated SD rats were orally treated with ^15N-Compounds (6) at 30 mg/kg, 5-ISM^15N (30 mg/kg), or ^15N-Compounds (1)-(5), 14)-(17), (19), (20), (23), (25), (28), (29), (32), (34) at 30 mg/kg. At each time point (5, 10, 15, 30, 60, 180, 360 and 1440 min) blood was taken using heparin to avoid blood clotting. Blood samples were immediately protein crushed. Samples were analyzed by LC-MS/MS.
In Table 7 are reported ^15N-nitrite blood levels following oral administration of SD rats with 5-ISM^15N (30 mg/kg) or with ^15N-labeled corresponding compounds of the invention (30 mg/kg).

Where [1] appears, read: cannulated SD rats, blood, oral 30 mg/kg.

`CC1=C(C)C(=O)C(CCCCCO[N+](=O)[O-])=C(C)C1=O` [^15N-Compound (1)]: under “rat, in vivo, po, 30 mg/kg”, the “15N-nitrite AUC0-24” value was 1248 µM·min, the “15N-nitrite Tmax” value came to 1 h and the Cmax turned out to be 3350 ± 420 nM.
On to `COC1=C(OC)C(=O)C(CCCCCO[15N+](=O)[O-])=C(C)C1=O` [^15N-Compound (2), 5-(4,5-dimethoxy-2-methyl-3,6-dioxocyclohexa-1,4-dienyl)pentyl nitrate-nitrogen-15], for which, for the setting “rat, in vivo, po, 30 mg/kg”, the “15N-nitrite AUC0-24” value stood at 1139 µM·min and the “15N-nitrite Tmax” value amounted to 1 h.
For the setting “rat, in vivo, po, 30 mg/kg”, `COC1=C(OC)C(=O)C(CCCCCO[N+](=O)[O-])=C(C)C1=O` [^15N-Compound (2), 5-(4,5-dimethoxy-2-methyl-3,6-dioxocyclohexa-1,4-dienyl)pentyl nitrate-nitrogen-15] gave a Cmax of 1920 ± 250 nM.
Regarding `CC1=C(C)C(=O)C(CCCCO[15N+](=O)[O-])=C(C)C1=O` [^15N-Compound (3), 4-(2,4,5-trimethyl-3,6-dioxocyclohexa-1,4-dienyl)butyl nitrate-nitrogen-15], under “rat, in vivo, po, 30 mg/kg”, the “15N-nitrite AUC0-24” value was determined as 1404 µM·min and the “15N-nitrite Tmax” value is 1 h.
As for `CC1=C(C)C(=O)C(CCCCO[N+](=O)[O-])=C(C)C1=O` [^15N-Compound (3), 4-(2,4,5-trimethyl-3,6-dioxocyclohexa-1,4-dienyl)butyl nitrate-nitrogen-15], the peak level (rat, in vivo, po, 30 mg/kg) (Cmax) was 4820 ± 1100 nM.
On to `COC1=C(OC)C(=O)C(CCCCO[N+](=O)[O-])=C(C)C1=O` [^15N-Compound (4), 4-(4,5-dimethoxy-2-methyl-3,6-dioxocyclohexa-1,4-dienyl)butyl nitrate-nitrogen-15], for which, for the setting “rat, in vivo, po, 30 mg/kg”, the “15N-nitrite AUC0-24” value was determined as 832 µM·min, the “15N-nitrite Tmax” value was 0.25 h and the concentration peaked (Cmax) at 3330 ± 100 nM.
For `CC1=C(C)C(=O)C(CCCCCCCCCCO[15N+](=O)[O-])=C(C)C1=O` [^15N-Compound (5), 10-(2,4,5-trimethyl-3,6-dioxocyclohexa-1,4-dienyl)decyl nitrate-nitrogen-15], where the note is “rat, in vivo, po, 30 mg/kg”, the “15N-nitrite AUC0-24” value came to 1496 µM·min and the “15N-nitrite Tmax” value stood at 3 h.
`CC1=C(C)C(=O)C(CCCCCCCCCCO[N+](=O)[O-])=C(C)C1=O` [^15N-Compound (5), 10-(2,4,5-trimethyl-3,6-dioxocyclohexa-1,4-dienyl)decyl nitrate-nitrogen-15] yielded a peak concentration (Cmax) (rat, in vivo, po, 30 mg/kg) of 1890 ± 420 nM.
Regarding `COC1=C(OC)C(=O)C(CCCOCCCO[15N+](=O)[O-])=C(C)C1=O` [^15N-Compound (14), 3-(3-(4,5-dimethoxy-2-methyl-3,6-dioxocyclohexa-1,4-dienyl)propoxy)propyl nitrate-nitrogen-15], for the setting “rat, in vivo, po, 30 mg/kg”, the “15N-nitrite AUC0-24” value was 694 µM·min and the “15N-nitrite Tmax” value came to 1 h.
For `COC1=C(OC)C(=O)C(CCCOCCCO[N+](=O)[O-])=C(C)C1=O` [^15N-Compound (14), 3-(3-(4,5-dimethoxy-2-methyl-3,6-dioxocyclohexa-1,4-dienyl)propoxy)propyl nitrate-nitrogen-15], the maximum concentration (Cmax) (rat, in vivo, po, 30 mg/kg) amounted to 1520 ± 110 nM.
For `CC1=C(C)C(=O)C(CCCCCCO[15N+](=O)[O-])=C(C)C1=O` [^15N-Compound (15), 6-(2,4,5-trimethyl-3,6-dioxocyclohexa-1,4-dienyl)hexyl nitrate-nitrogen-15], where the note is “rat, in vivo, po, 30 mg/kg”, the “15N-nitrite AUC0-24” value stood at 2135 µM·min and the “15N-nitrite Tmax” value was found to be 3 h.
On to `CC1=C(C)C(=O)C(CCCCCCO[N+](=O)[O-])=C(C)C1=O` [^15N-Compound (15), 6-(2,4,5-trimethyl-3,6-dioxocyclohexa-1,4-dienyl)hexyl nitrate-nitrogen-15], for which the Cmax (rat, in vivo, po, 30 mg/kg) is 3650 ± 580 nM.
In the case of `COC1=C(OC)C(=O)C(CCCCCCO[N+](=O)[O-])=C(C)C1=O` [^15N-Compound (16), 6-(4,5-dimethoxy-2-methyl-3,6-dioxocyclohexa-1,4-dienyl)hexyl nitrate-nitrogen-15], for the setting “rat, in vivo, po, 30 mg/kg”, the “15N-nitrite AUC0-24” value was 1559 µM·min, the “15N-nitrite Tmax” value came out at 3 h and the concentration peaked (Cmax) at 2930 ± 490 nM.
For the compound `COC1=C(OC)C(=O)C(CCCCCCCCCC(CO[N+](=O)[O-])O[N+](=O)[O-])=C(C)C1=O` (centres unmarked) [^15N-Compound (17), 11-(4,5-dimethoxy-2-methyl-3,6-dioxocyclohexa-1,4-dienyl)-undecane-1,2-diyl dinitrate-nitrogen-15], for the setting “rat, in vivo, po, 30 mg/kg”, the “15N-nitrite AUC0-24” value is 1666 µM·min, the “15N-nitrite Tmax” value came out at 3 h and the Cmax was found to be 2060 ± 120 nM.
For the compound `COC1=C(OC)C(=O)C(CCCOCCO[15N+](=O)[O-])=C(C)C1=O` [^15N-Compound (20), 2-(3-(4,5-dimethoxy-2-methyl-3,6-dioxocyclohexa-1,4-dienyl)propoxy)ethyl nitrate-nitrogen-15], under setting [1], the “15N-nitrite AUC0-24” value was 1154 µM·min and the “15N-nitrite Tmax” value was determined as 1 h.
As to `COC1=C(OC)C(=O)C(CCCOCCO[N+](=O)[O-])=C(C)C1=O` [^15N-Compound (20), 2-(3-(4,5-dimethoxy-2-methyl-3,6-dioxocyclohexa-1,4-dienyl)propoxy)ethyl nitrate-nitrogen-15], where the note is “cannulated SD rats, blood, oral 30 mg/kg, read-out: 15N-nitrite Cmax”, the Cmax was 3580 ± 720 nM.
`CC1=C(CCCCCCO[15N+](=O)[O-])C(=O)c2ccccc2C1=O` [^15N-Compound (23), 6-(3-methyl-1,4-dioxo-1,4-dihydronaphthalen-2-yl)hexyl nitrate-nitrogen-15]: under “rat, in vivo, po, 30 mg/kg”, the “15N-nitrite AUC0-24” value was 2586 µM·min and the “15N-nitrite Tmax” value came out at 3 h.
`CC1=C(CCCCCCO[N+](=O)[O-])C(=O)c2ccccc2C1=O` [^15N-Compound (23), 6-(3-methyl-1,4-dioxo-1,4-dihydronaphthalen-2-yl)hexyl nitrate-nitrogen-15] showed a Cmax (rat, in vivo, po, 30 mg/kg) of 4050 ± 530 nM.
As for `CC1=C(CCCOCCCO[N+](=O)[O-])C(=O)c2ccccc2C1=O` [^15N-Compound (25), 3-(3-(3-methyl-1,4-dioxo-1,4-dihydronaphthalen-2-yl)propoxy)propyl nitrate-nitrogen-15], under “rat, in vivo, po, 30 mg/kg”, the “15N-nitrite AUC0-24” value was 2010 µM·min, the “15N-nitrite Tmax” value was found to be 3 h and the Cmax was found to be 2890 ± 690 nM.
Take `COC1=C(C)C(=O)C(C)=C(CCCCCCO[N+](=O)[O-])C1=O` [^15N-Compound (28), 6-(5-methoxy-2,4-dimethyl-3,6-dioxocyclohexa-1,4-dienyl)hexyl nitrate-nitrogen-15]: where the note is “rat, in vivo, po, 30 mg/kg”, the “15N-nitrite AUC0-24” value was found to be 1199 µM·min, the “15N-nitrite Tmax” value turned out to be 1 h and the highest level (Cmax) was 3740 ± 420 nM.
The matching figures for `COC1=C(C)C(=O)C(CCCCCCO[N+](=O)[O-])=C(C)C1=O` [^15N-Compound (29), 6-(4-methoxy-2,5-dimethyl-3,6-dioxocyclohexa-1,4-dienyl)hexyl nitrate-nitrogen-15]: 1309 µM·min, 1 h and 2550 ± 220 nM.
On the same counts, the results for `COC1=C(C)C(=O)C(CCCCCCCCO[N+](=O)[O-])=C(C)C1=O` [^15N-Compound (32), 8-(4-methoxy-2,5-dimethyl-3,6-dioxocyclohexa-1,4-dienyl)octyl nitrate-nitrogen-15] are 1892 µM·min, 3 h and 1980 ± 570 nM.
On to `CC1=C(C)C(=O)C(CCCCCCCCO[15N+](=O)[O-])=C(C)C1=O` [^15N-Compound (34), 8-(2,4,5-trimethyl-3,6-dioxocyclohexa-1,4-dienyl)octyl nitrate-nitrogen-15], for which, for the setting “rat, in vivo, po, 30 mg/kg”, the “15N-nitrite AUC0-24” value is 1477 µM·min and the “15N-nitrite Tmax” value came to 3 h.
